PMC5824344 (ACS Chemical Biology, 2017)
“Also recorded” adds a separate entry of the source.

Experiments:
[1] = system: DENV2 strain 16681 in primary human MDMΦ; assay: DENV primary MDMΦ antiviral assay (infectious titer by plaque assay); assay type: cell-based, dengue virus; details: Dengue virus, DENV2; dengue-infected MDMΦ, 7 donors; read-out: IC50 for DENV inhibition (infectious virus titer)
Experimental: each well was scored as either positive (≥ 5 stained cells) or negative. TCID50 values were calculated according to the method of Reed and Muench.8
5.7 DENV Primary MDMΦ Antiviral Assay
DENV2 strain 16681 (a gift from Prof. E. Gould, Centre for Ecology and Hydrology, Oxford, United Kingdom) was propagated in the C6/36 cell line. In the antiviral assay, MDMΦ cells (7 donors) were seeded in a 24-well plate at a density of 1× 10^6 cells/well in 1 mL of growth media. The cells were inoculated for 2 h with DENV2 16681 strain at an MOI of 1. […]
(§1) The infectious DENV titres in supernatants collected were evaluated by plaque assay as described previously.9 Brieﬂy, LLC-MK2 cells were seeded in conﬂuent monolayers in a 12-well plate. Four 10-fold dilutions of each supernatant to be analyzed were prepared in minimum essential media (MEM, Gibco), supplemented with 100 µg mL−1 streptomycin, 100 U mL−1 penicillin and 10% (v/v) FCS. […]
(§2) After 1 d, plaques were observed and counted from the underside of the plate by eye. […]
18 healthy male BALB/c mice (8 – 12 weeks old) weighing between 20 and 35 g were procured from ACTREC, Mumbai, India. […] Temperature and humidity were recorded by an auto-controlled data logging system and maintained at 22± 3◦C and 55± 15% humidity, respectively. […]

[2] = system: DENV (serotype 2, strain 16681) in Huh7.5 cells; assay: DENV Huh7.5 antiviral assay (infectious titer by plaque assay); assay type: cell-based, dengue virus; details: MOI 0.1, 48 h, titration of 4 or 50 µm of 3
Experimental: Supplemental Figure 3: Antiviral activity of 4 in human hepatoma Huh7.5 cell line.
(A) Huh7.5 cells were infected with DENV (serotype 2, strain 16681, multiplicity of infection = 0.1) and treated with a titration of ToP-DNJ 4 or 50 µm of tocopherol 3 for 48 h. Infectious virus titer was measured by plaque assay on LLC-MK2 cells. Counts were normalized to 100% for untreated samples.
DENV eﬀect at the concentrations tested. (B) Huh7.5 cells were infected with HCV (JFH-1, multiplicity of infection = 2) and treated with a titration of ToP-DNJ 4 or 50 µm tocopherol 3 for 96 h. Infectious virus titer was measured by TCID50 assay on […]
tested. In both panels, each data point represent the mean of triplicates, with error bars showing standard error of the mean (GraphPad Prism). […]
each well was scored as either positive (≥ 5 stained cells) or negative. TCID50 values were calculated according to the method of Reed and Muench.8 […]
as §1, §2

Cc1c(C)c2c(c(C)c1OCCCCCN1CC(O)C(O)C(O)C1CO)CCC(C)(CCCC(C)CCCC(C)CCCC(C)C)O2 (centres unmarked) [Compound 4, 5′-tocopheroxypentyl-DNJ]
IC50 [1]: 12.7 µM | anti-DENV effect (infectious virus titer) [2]: neither an anti-DENV nor anti-HCV effect was observed; also recorded: Neither 4 nor 3 showed an anti-
